In patent publication US8067395B2, “Inhibitors of tyrosine kinases and uses thereof” (Pharmacyclics, Inc., priority 2006, dated 2011) one finds Ki data, which are given here for 3 compounds.

The target in this assay is Btk (Homo sapiens, UniProt Q06187). The assay is described as follows: Btk TR-FRET kinase inhibition assay. Format: biochemical. The note with it: pH 7.4, ATP at the Km for the kinase, 1 μM peptide substrate, [Btk]total=0.5 nM, read-out: Btk-TRFRET (Ki). The method, then:
Suitable in vitro assays for measuring kinase activity and the inhibition thereof by compounds are known (e.g., see Kuzmic et al. Anal. Biochem. 2000, 286, 45-50).
The following protocol represents an assay for determination of inhibition of kinases under physiological conditions (pH 7.4). Kinase activity was determined using a time-resolved fluorescence resonance energy transfer (TR-FRET) methodology. Measurements were performed in a reaction volume of 50 μL using 96-well assay plates. Kinase enzyme, inhibitor, ATP (at the Km for the kinase), and 1 μM peptide substrate (Biotin-AVLESEEELYSSARQ-NH2) were incubated in a reaction buffer composed of 20 mM Tris, 50 mM NaCl, MgCl2 (5-25 mM depending on the kinase), 1 mM DTT, 0.1 mM EDTA, 0.01% bovine serum albumin, 0.005% Tween-20, and 10% DMSO at pH 7.4 for one hour. The reaction was quenched by the addition of 1.2 equivalents of EDTA (relative to Mg^2+) in 25 μL of 1× Lance buffer (Perkin-Elmer). Streptavidin-APC (Perkin-Elmer) and Eu-labeled p-Tyr100 antibody (Perkin-Elmer) in 1× Lance buffer were added in a 25 μL volume to give final concentrations of 100 nM and 2.5 nM, respectively, and the mixture was allowed to incubate for one hour. The TR-FRET signal was measured on a multimode plate reader with an excitation wavelength of 330 nm and detection wavelengths of 615 nm and 665 nm. Activity was determined by the ratio of the fluorescence at 665 nm to that at 615 nm. For each compound, enzyme activity was measured at various concentrations of compound. Negative control reactions were performed in the absence of inhibitor in replicates of six, and two no-enzyme controls were used to determine baseline fluorescence levels. Inhibition constants were obtained using the program BatchKi (Kuzmic et al. Anal. Biochem. 2000, 286, 45-50). IC50s were obtained according to this equation: IC50={Ki(app)/(1+[ATP]/Km^ATP)}+[E]total/2; for all kinases, [ATP]=Km^ATP, [Btk]total=0.5 nM and [Lck]total=6 nM.
A general note: TR-FRET usually uses a lanthanide donor and a delayed reading to cut background.

Where only a bound is given, the exact number is not on record here.

Btk, sequence (Q06187 whole entry): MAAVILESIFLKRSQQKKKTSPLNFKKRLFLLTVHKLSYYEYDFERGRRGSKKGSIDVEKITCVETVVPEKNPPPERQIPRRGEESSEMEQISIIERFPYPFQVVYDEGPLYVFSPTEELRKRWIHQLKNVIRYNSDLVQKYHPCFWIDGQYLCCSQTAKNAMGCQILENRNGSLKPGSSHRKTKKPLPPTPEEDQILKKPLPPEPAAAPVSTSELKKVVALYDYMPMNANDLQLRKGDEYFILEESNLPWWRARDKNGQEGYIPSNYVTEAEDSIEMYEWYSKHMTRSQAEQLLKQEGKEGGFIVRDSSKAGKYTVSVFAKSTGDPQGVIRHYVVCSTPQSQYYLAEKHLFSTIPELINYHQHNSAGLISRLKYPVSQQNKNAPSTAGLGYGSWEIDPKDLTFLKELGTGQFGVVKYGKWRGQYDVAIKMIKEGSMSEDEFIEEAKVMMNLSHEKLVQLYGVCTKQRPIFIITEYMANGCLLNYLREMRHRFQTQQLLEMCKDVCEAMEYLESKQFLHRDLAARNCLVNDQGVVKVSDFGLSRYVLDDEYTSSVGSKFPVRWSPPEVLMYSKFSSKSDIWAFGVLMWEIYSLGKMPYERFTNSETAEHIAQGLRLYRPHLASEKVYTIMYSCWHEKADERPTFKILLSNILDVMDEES

`CCS(=O)(=O)N1CCN(CC=Cc2[nH]c(=O)c3c(ccc4nc(Nc5ccc(F)cc5C)n(C)c43)c2C)CC1` [Compound 35, 2-(4-fluoro-2-methylphenylamino)-1,6-dimethyl-7-[3-(N-(ethylsulfonyl)-piperazin-1-yl)-propenyl]-1,8-dihydro-imidazo[4,5-h]isoquinolin-9-one]: the Ki is less than 100 nM.

As to `Cc1cc(F)ccc1Nc1nc2ccc3c(C)c(C=CCN4CCN(c5ccccn5)CC4)[nH]c(=O)c3c2n1C` [Compound 26, 2-(4-fluoro-2-methylphenylamino)-1,6-dimethyl-7-[3-(N-(pyridin-2-yl)-piperazin-1-yl)-propenyl]-1,8-dihydro-imidazo[4,5-h]isoquinolin-9-one], the Ki is less than 100 nM.

For `Cc1cc(F)ccc1Nc1nc2ccc3c(C)c(/C=C/CNC(=O)C4CCP(C)(=O)CC4)[nH]c(=O)c3c2n1C` (mixture of isomers) [Compound 15, 2-(4-fluoro-2-methylphenylamino)-1,6-dimethyl-7-{3-[(1-oxo-1-methyl-1λ^5-phosphinan-4-yl)-carbonylamino]propenyl}-1,8-dihydro-imidazo[4,5-h]isoquinolin-9-one], the Ki was less than 100 nM.

The Ki is the equilibrium dissociation constant of an inhibitor or competing ligand from its target.
